According to paper PMC8371902, “Phase 1 study of M2698, a p70S6K/AKT dual inhibitor, in patients with advanced cancer” (Journal of Hematology & Oncology, 2021):
Read-outs that look alike come from different tables or passages of the source.

Tested on: patients with advanced metastatic cancer
Description: In this phase 1 study, dose escalation was followed by expansion cohorts of once-daily, oral M2698 in continuous 21-day cycles. Primary objectives were to determine the maximum tolerated dose (MTD), dose-limiting toxicities (DLTs), and recommended phase 2 dose (RP2D). Secondary objectives were to assess safety and tolerability, pharmacokinetics (PK, including food effect) and antitumor activity. Pharmacodynamic biomarker assessments were exploratory. Treatment was discontinued if there was disease progression, toxicity or consent withdrawal.
In Part 1, M2698 monotherapy was investigated in a dose escalation with a food effect cohort. In Part 2, M2698 was investigated as monotherapy (expansion cohort) to further characterize safety, tolerability and pharmacokinetics, and assess antitumor activity in PAM + patients without confounding markers (exploratory).
Dose escalation analysis included all patients who experienced a DLT and those who received ≥ 80% of planned M2698 doses in cycle 1 without experiencing a DLT. Safety analysis included all patients who received ≥ 1 dose of M2698. PK analysis included all patients who received ≥ 1 dose of M2698 and had measurable plasma concentrations. Dose proportionality was tested using the power model (linear regression approach on the log -transformed scale).

NC(=O)c1cccc2c(N[C@H](CN3CCC3)c3ccc(Cl)c(C(F)(F)F)c3)ncnc12 [M2698]
1: M2698-related TEAE: Gamma-glutamyltransferase increased (15 mg n=3) | M2698-related TEAE: Investigations (15 mg n=3) | M2698-related TEAE: Subjects with at least one event (15 mg n=3) | M2698-related TEAE: Diarrhoea (30 mg n=3) | M2698-related TEAE: Eye disorders (30 mg n=3) | M2698-related TEAE: Gastrointestinal disorders (30 mg n=3) | M2698-related TEAE: Hypokalaemia (30 mg n=3) | M2698-related TEAE: Metabolism and nutrition disorders (30 mg n=3) | M2698-related TEAE: Rash maculo-papular (30 mg n=3) | M2698-related TEAE: Skin and subcutaneous tissue disorders (30 mg n=3) | M2698-related TEAE: Vision blurred (30 mg n=3) | M2698-related TEAE: Affect lability (60 mg n=6) | M2698-related TEAE: Alanine aminotransferase increased (60 mg n=6) | M2698-related TEAE: Amylase increased (60 mg n=6) | M2698-related TEAE: Angina pectoris (60 mg n=6) | M2698-related TEAE: Cardiac disorders (60 mg n=6) | M2698-related TEAE: Investigations (60 mg n=6) | M2698-related TEAE: Lipase increased (60 mg n=6) | M2698-related TEAE: Onychomadesis (60 mg n=6) | M2698-related TEAE: Psychiatric disorders (60 mg n=6) | M2698-related TEAE: Skin and subcutaneous tissue disorders (60 mg n=6) | M2698-related TEAE: Abnormal dreams (75 mg n=4)
grade 3 lipase increase: DLT observed (60 mg, n = 1, resolved following treatment interruption)
0: M2698-related TEAE: Abnormal dreams (15 mg n=3) | M2698-related TEAE: Affect lability (15 mg n=3) | M2698-related TEAE: Alanine aminotransferase increased (15 mg n=3) | M2698-related TEAE: Amylase increased (15 mg n=3) | M2698-related TEAE: Anaemia (15 mg n=3) | M2698-related TEAE: Angina pectoris (15 mg n=3) | M2698-related TEAE: Anxiety (15 mg n=3) | M2698-related TEAE: Aphasia (15 mg n=3) | M2698-related TEAE: Ataxia (15 mg n=3) | M2698-related TEAE: Blood and lymphatic system disorders (15 mg n=3) | M2698-related TEAE: Blood creatine phosphokinase increased (15 mg n=3) | M2698-related TEAE: Blood creatinine increased (15 mg n=3) | M2698-related TEAE: Cardiac disorders (15 mg n=3) | M2698-related TEAE: Cognitive disorder (15 mg n=3) | M2698-related TEAE: Constipation (15 mg n=3) | M2698-related TEAE: Decreased appetite (15 mg n=3) | M2698-related TEAE: Delusion (15 mg n=3) | M2698-related TEAE: Depression (15 mg n=3) | M2698-related TEAE: Diarrhoea (15 mg n=3) | M2698-related TEAE: Diarrhoea haemorrhagic (15 mg n=3) | M2698-related TEAE: Dizziness (15 mg n=3) | M2698-related TEAE: Dry eye (15 mg n=3) | M2698-related TEAE: Dry mouth (15 mg n=3) | M2698-related TEAE: Dysgeusia (15 mg n=3) | M2698-related TEAE: Dyspepsia (15 mg n=3) | M2698-related TEAE: Dysphagia (15 mg n=3) | M2698-related TEAE: Energy increased (15 mg n=3) | M2698-related TEAE: Erythema (15 mg n=3) | M2698-related TEAE: Euphoric mood (15 mg n=3) | M2698-related TEAE: Eye disorders (15 mg n=3) | M2698-related TEAE: Fatigue (15 mg n=3) | M2698-related TEAE: Gastrointestinal disorders (15 mg n=3) | M2698-related TEAE: Gastrooesophageal reflux disease (15 mg n=3) | M2698-related TEAE: General disorders and administration site conditions (15 mg n=3) | M2698-related TEAE: Headache (15 mg n=3) | M2698-related TEAE: Hyperhidrosis (15 mg n=3) | M2698-related TEAE: Hypokalaemia (15 mg n=3) | M2698-related TEAE: Hypomagnesaemia (15 mg n=3) | M2698-related TEAE: Insomnia (15 mg n=3) | M2698-related TEAE: Lipase increased (15 mg n=3) | M2698-related TEAE: Lymphopenia (15 mg n=3) | M2698-related TEAE: Metabolism and nutrition disorders (15 mg n=3) | M2698-related TEAE: Mucosal inflammation (15 mg n=3) | M2698-related TEAE: Nausea (15 mg n=3) | M2698-related TEAE: Nervous system disorders (15 mg n=3) | M2698-related TEAE: Nightmare (15 mg n=3) | M2698-related TEAE: Onychomadesis (15 mg n=3) | M2698-related TEAE: Paranoia (15 mg n=3) | M2698-related TEAE: Photosensitivity reaction (15 mg n=3) | M2698-related TEAE: Posterior reversible encephalopathy syndrome (15 mg n=3) | M2698-related TEAE: Pruritus generalised (15 mg n=3) | M2698-related TEAE: Psychiatric disorders (15 mg n=3) | M2698-related TEAE: Rash (15 mg n=3) | M2698-related TEAE: Rash maculo-papular (15 mg n=3) | M2698-related TEAE: Skin and subcutaneous tissue disorders (15 mg n=3) | M2698-related TEAE: Transaminases increased (15 mg n=3) | M2698-related TEAE: Tremor (15 mg n=3) | M2698-related TEAE: Vision blurred (15 mg n=3) | M2698-related TEAE: Vomiting (15 mg n=3) | M2698-related TEAE: White blood cell count decreased (15 mg n=3) | M2698-related TEAE: Abnormal dreams (30 mg n=3) | M2698-related TEAE: Affect lability (30 mg n=3) | M2698-related TEAE: Alanine aminotransferase increased (30 mg n=3) | M2698-related TEAE: Amylase increased (30 mg n=3) | M2698-related TEAE: Anaemia (30 mg n=3) | M2698-related TEAE: Angina pectoris (30 mg n=3) | M2698-related TEAE: Anxiety (30 mg n=3) | M2698-related TEAE: Aphasia (30 mg n=3) | M2698-related TEAE: Ataxia (30 mg n=3) | M2698-related TEAE: Blood and lymphatic system disorders (30 mg n=3) | M2698-related TEAE: Blood creatine phosphokinase increased (30 mg n=3) | M2698-related TEAE: Blood creatinine increased (30 mg n=3) | M2698-related TEAE: Cardiac disorders (30 mg n=3) | M2698-related TEAE: Cognitive disorder (30 mg n=3) | M2698-related TEAE: Constipation (30 mg n=3) | M2698-related TEAE: Decreased appetite (30 mg n=3) | M2698-related TEAE: Delusion (30 mg n=3) | M2698-related TEAE: Depression (30 mg n=3) | M2698-related TEAE: Diarrhoea haemorrhagic (30 mg n=3) | M2698-related TEAE: Dizziness (30 mg n=3) | M2698-related TEAE: Dry eye (30 mg n=3) | M2698-related TEAE: Dry mouth (30 mg n=3) | M2698-related TEAE: Dysgeusia (30 mg n=3) | M2698-related TEAE: Dyspepsia (30 mg n=3) | M2698-related TEAE: Dysphagia (30 mg n=3) | M2698-related TEAE: Energy increased (30 mg n=3) | M2698-related TEAE: Erythema (30 mg n=3) | M2698-related TEAE: Euphoric mood (30 mg n=3) | M2698-related TEAE: Fatigue (30 mg n=3) | M2698-related TEAE: Gamma-glutamyltransferase increased (30 mg n=3) | M2698-related TEAE: Gastrooesophageal reflux disease (30 mg n=3) | M2698-related TEAE: General disorders and administration site conditions (30 mg n=3) | M2698-related TEAE: Headache (30 mg n=3) | M2698-related TEAE: Hyperhidrosis (30 mg n=3) | M2698-related TEAE: Hypomagnesaemia (30 mg n=3) | M2698-related TEAE: Insomnia (30 mg n=3) | M2698-related TEAE: Investigations (30 mg n=3) | M2698-related TEAE: Lipase increased (30 mg n=3) | M2698-related TEAE: Lymphopenia (30 mg n=3) | M2698-related TEAE: Mucosal inflammation (30 mg n=3) | M2698-related TEAE: Nausea (30 mg n=3) | M2698-related TEAE: Nervous system disorders (30 mg n=3) | M2698-related TEAE: Nightmare (30 mg n=3) | M2698-related TEAE: Onychomadesis (30 mg n=3) | M2698-related TEAE: Paranoia (30 mg n=3) | M2698-related TEAE: Photosensitivity reaction (30 mg n=3) | M2698-related TEAE: Posterior reversible encephalopathy syndrome (30 mg n=3) | M2698-related TEAE: Pruritus generalised (30 mg n=3) | M2698-related TEAE: Psychiatric disorders (30 mg n=3) | M2698-related TEAE: Rash (30 mg n=3) | M2698-related TEAE: Transaminases increased (30 mg n=3) | M2698-related TEAE: Tremor (30 mg n=3) | M2698-related TEAE: Vomiting (30 mg n=3) | M2698-related TEAE: White blood cell count decreased (30 mg n=3) | M2698-related TEAE: Abnormal dreams (60 mg n=6) | M2698-related TEAE: Anaemia (60 mg n=6) | M2698-related TEAE: Anxiety (60 mg n=6) | M2698-related TEAE: Aphasia (60 mg n=6) | M2698-related TEAE: Ataxia (60 mg n=6) | M2698-related TEAE: Blood and lymphatic system disorders (60 mg n=6) | M2698-related TEAE: Blood creatine phosphokinase increased (60 mg n=6) | M2698-related TEAE: Blood creatinine increased (60 mg n=6) | M2698-related TEAE: Cognitive disorder (60 mg n=6) | M2698-related TEAE: Constipation (60 mg n=6) | M2698-related TEAE: Decreased appetite (60 mg n=6) | M2698-related TEAE: Delusion (60 mg n=6) | M2698-related TEAE: Depression (60 mg n=6) | M2698-related TEAE: Diarrhoea (60 mg n=6) | M2698-related TEAE: Diarrhoea haemorrhagic (60 mg n=6) | M2698-related TEAE: Dizziness (60 mg n=6) | M2698-related TEAE: Dry eye (60 mg n=6) | M2698-related TEAE: Dry mouth (60 mg n=6) | M2698-related TEAE: Dysgeusia (60 mg n=6) | M2698-related TEAE: Dyspepsia (60 mg n=6) | M2698-related TEAE: Dysphagia (60 mg n=6) | M2698-related TEAE: Energy increased (60 mg n=6) | M2698-related TEAE: Erythema (60 mg n=6) | M2698-related TEAE: Euphoric mood (60 mg n=6) | M2698-related TEAE: Eye disorders (60 mg n=6) | M2698-related TEAE: Fatigue (60 mg n=6) | M2698-related TEAE: Gamma-glutamyltransferase increased (60 mg n=6) | M2698-related TEAE: Gastrointestinal disorders (60 mg n=6) | M2698-related TEAE: Gastrooesophageal reflux disease (60 mg n=6) | M2698-related TEAE: General disorders and administration site conditions (60 mg n=6) | M2698-related TEAE: Headache (60 mg n=6) | M2698-related TEAE: Hyperhidrosis (60 mg n=6) | M2698-related TEAE: Hypokalaemia (60 mg n=6) | M2698-related TEAE: Hypomagnesaemia (60 mg n=6) | M2698-related TEAE: Insomnia (60 mg n=6) | M2698-related TEAE: Lymphopenia (60 mg n=6) | M2698-related TEAE: Metabolism and nutrition disorders (60 mg n=6) | M2698-related TEAE: Mucosal inflammation (60 mg n=6) | M2698-related TEAE: Nausea (60 mg n=6) | M2698-related TEAE: Nervous system disorders (60 mg n=6) | M2698-related TEAE: Nightmare (60 mg n=6) | M2698-related TEAE: Paranoia (60 mg n=6) | M2698-related TEAE: Photosensitivity reaction (60 mg n=6) | M2698-related TEAE: Posterior reversible encephalopathy syndrome (60 mg n=6) | M2698-related TEAE: Pruritus generalised (60 mg n=6) | M2698-related TEAE: Rash (60 mg n=6) | M2698-related TEAE: Rash maculo-papular (60 mg n=6) | M2698-related TEAE: Transaminases increased (60 mg n=6) | M2698-related TEAE: Tremor (60 mg n=6) | M2698-related TEAE: Vision blurred (60 mg n=6) | M2698-related TEAE: Vomiting (60 mg n=6) | M2698-related TEAE: White blood cell count decreased (60 mg n=6) | M2698-related TEAE: Affect lability (75 mg n=4) | M2698-related TEAE: Alanine aminotransferase increased (75 mg n=4) | M2698-related TEAE: Amylase increased (75 mg n=4) | M2698-related TEAE: Anaemia (75 mg n=4) | M2698-related TEAE: Angina pectoris (75 mg n=4) | M2698-related TEAE: Anxiety (75 mg n=4) | M2698-related TEAE: Aphasia (75 mg n=4)
2: M2698-related TEAE: Subjects with at least one event (30 mg n=3) | M2698-related TEAE: Subjects with at least one event (60 mg n=6)
